Legend:
[1] = system: NMDA receptor subunit NR1; assay: Immunocytochemical localization of NMDA receptor subunit NR1 in spinal cord of arthritic rats; format: in vivo, rat; conditions: 4 hours, Genistein 1 mM spinal pre-treatment, cycloheximide 100 mg/kg i.p.
Source text: Cycloheximide (100 milligrams per kilogram (mg/kg) intraperitoneal (i.p.) was used in some studies to determine if the alterations observed for the NMDA NR1 receptor subunit could be attributed to newly synthesized NR1 protein.
Twenty-four rats in 3 separate groups were used for immunocytochemical studies. One group of rat (n=8) was a naive control. The other 2 groups (n=16) of rats received surgical placement of the microdialysis fiber placement. On the day after microdialysis fiber placement, the animals were treated spinally with either Genistein (1 mM) or vehicle (50% DMSO in aCSF) for 1.5 hours (n=8 for each group). Then the left knee joint of all sixteen rats was injected with 0.1 ml of kaolin and carrageenan.
Animals were anesthetized and transcardially perfused with a brief warm saline rinse followed by fixative solution (4% paraformaldehyde in 0.1 M phosphate buffer, pH 7.4). The tissues were soaked overnight in 30% buffered sucrose and cut at 30 microns on a sliding microtome. For light microscopy, the tissues from animals (n=8) were permeabilized with a 50% buffered ethanol treatment. Tissue sections were then stained immunocytochemically for glutamate receptor subunit NR1 and phospho-NR1. Primary antibodies to be used for staining include anti-NMDA NR1 NMDA receptor (0.5–1 milligrams per milliliter (mg/ml)) purchased from Chemlcon Inc. (Pittsburgh, Pa.). Other neurotransmitter and receptor primary antibodies against NMDA NR2C, mGluR1, and mGluR5 were used as stain specificity controls. The primary antibodies were diluted in phosphate buffered saline (PBS, pH 7.6) with 0.1% BSA for overnight incubation on the spinal cord tissues. After washing in PBS, the tissue sections were incubated in the appropriate secondary antibody, either anti-mouse or anti-rabbit IgG (1:100, 30 minutes) and in avidin-biotin complex (ABC, 1:100, Vector Laboratories, Burlingame, Calif.). Sections were reacted with diaminobenzidine (DAB) solution (1.5 mg/ml) as the chromogen and peroxide (0.5 mg/ml) to produce a dense reaction product. To further intensify the reaction product particularly for visualization of nuclear rings, some tissues were reacted with colloidal gold conjugated IgG and reacted with a silver chloride solution to produce an intense black reaction product (Takizawa et al., J. Histochemistry & Cytochemistry, 42, 1615–1623 (1994)).
Immunocytochemical controls included sections processed in the absence of the primary or secondary antibody or ABC reagents. The specificity of the transmitter antibodies was confirmed by appearance of a single band by Western blot. In addition to use of the C-terminus NR1 antibody from ChemIcon, an antibody directed to the N-terminus of the NR1 protein was used as control (1 mg/ml; BD PharMingen, San Diego, Calif.). […]

TNFα = TNFα release by ELISA from SW982 synovial cells treated with NMDA and ACPD; format: cell-based, human; conditions: 24 hours, NMDA (5 mM) and ACPD (5 mM), K252a (100 nM)
Experimental: The cultured cell lines used in these studies were the human neuroblastoma clonal line, SHSY5Y, and the human synovial sarcoma clonal line, SW982, both available through the American Tissue Type Culture Collection (item number CRL 2266 and HTB-93, respectively). Cells were grown in Dulbecco's Modification of Eagles Medium (DMEM) without L-glutamine, with 4.5 grams/Liter glucose, and with 10% bovine fetal serum in a tissue culture incubator at 37° C. in a gaseous mixture of O2/CO2. Cells were routinely split as necessary to maintain proper cell density. Cells were removed from plates by adding TRYPSIN/EDTA in Hank's Balanced Salt solution. After cell counts, approximately 10,000 cells were plated per well in a culture dish. For experiments, the cells were plated into 35 mm Petri dishes or 6- or 24-well plates as needed.
For detection of released Tumor Necrosis Factor alpha (TNFα) and some western blot experiments, cells were exposed to the two glutamate agonists NMDA (5 mM) and ACPD (5 mM), in the presence or absence of the tyrosine kinase inhibitors Genistein […] or K252a (100 nM). […]
The release of the inflammatory mediator and initiator of inflammatory cascades, TNFα was measured by ELISA using a commercially available kit (R&D Quantikine, Catalog Number DTA50) specific for human TNFα. […]

rat arthritis model [2] = assay: Paw withdrawal latency (PWL) to radiant heat in rat kaolin/carrageenan knee joint inflammation model; format: in vivo; conditions: for development of secondary hyperalgesia: spinal microdialysis pre-treatment, 4 hours after induction of arthritis
Experimental: All studies followed the guidelines of the Institute Animal Care and Use Committee, in accordance with the guidelines of the National Institutes of Health. All animals were hosted in a room with a constant ambient temperature of 22° C. and 12 hour light/dark cycle with free access to food and water. Eighty-five Sprague-Dawley rats (250–300 grams) total were used in experiments conducted for biochemical, behavioral, and immunocytochemistry studies. […] On Day 2 baseline behavioral testing was followed by infusion of agents for 1.5 hours (pretreatment) prior to induction of knee joint inflammation under brief anesthesia. Behavioral testing was repeated 4 hours after induction of joint inflammation. Anesthetized animals were either transcardially perfused with aldehydes for immunohistochemical studies or fresh, frozen tissues collected for biochemical studies.
A microdialysis fiber was implanted into the spinal dorsal horn of anesthetized rats (sodium pentobarbital, 50 mg/kg) one day prior to the induction of arthritis according to the procedure of Skilling et al. (J. Neurochem., 51:127–132 (1988)), as described in Sluka et al. (Neurosci. Lett., 145:141–144 (1992)). Briefly, a small midline incision was made in the skin over the T12 vertebral level. The vertebrae were cleared of muscle and two 1 millimeter (mm) holes were drilled in the lateral aspect of both sides of the T12 vertebrae to expose the L4 spinal segment. A microdialysis fiber ([…], 45,000 MW cut-off, Hospal, AN69, Hospal Industrie, Meyzieu, France), was passed transversely across the deep dorsal horn and stabilized with dental cement. The microdialysis fiber was then passed through the holes in the vertebrae and transversely through the dorsal horn of the spinal cord. A 2 mm section of the microdialysis fiber lies in the dorsal horn at the level of L3–4 segment. The tubing was coated with epoxy except for a permeable portion passing through the spinal grey matter. The microdialysis fiber was connected to PE20 tubing (Becton Dickinson and Company, San Mateo, Calif.) which was tunneled under the skin to the nape of the neck. Alternatively as a systemic control for drug administration, the microdialysis fiber was implanted only in the subcutaneous tissue over the back muscle and tunneled to the neck. Artificial cerebrospinal fluid (aCSF) was made as described by Sorkin et al. (J. Neurosci. Methods, 23, 131–138 (1988)) and was infused (5 microliters/minute) for 1.5 hours and then the tube was heat-sealed for use on the following day.
Dose response curves were generated for Genistein with animals receiving Genistein spinally at concentration of 0.2 mM (n=3), 0.5 mM (n=3), 1 mM (n=9), and 2 mM (n=3). Animals received Lavendustin A or B spinally at concentrations of 0.1 mM (n=3), 0.5 mM (n=3), and 1 mM (n=5) as a positive and negative control for Genistein. […] Daidzein was tested at a dose of 1 mM (n=3). […] Eight additional animals received the vehicle, 50% DMSO in aCSF, as a control.
(§1) An acute inflammatory response restricted to the knee joint can be induced by the injection of 3% kaolin and 3% carrageenan (in sterile saline; 0.1 ml; pH 7.4) into the joint cavity while the animal is briefly anesthetized with sodium methohexital (Brevital, 60 mg/kg, i.p.). Kaolin and carrageenan were obtained from Fisher Scientific, St. Louis, Mo. The knee joint is flexed manually until the rat awakes (approximately 5–10 minutes). In this arthritis model in the awake rat, localized joint swelling, as well as limping and guarding of the limb, are well developed at 4 hours (Sluka et al., Pain, 59, 95–100 (1994)) when behavioral testing begins.
Fifty-five rats were used for behavioral studies. Four hours after induction of the arthritis, the joint is swollen and increased withdrawal responses to radiant heat and spontaneous guarding of the limb were noted. The increased responsiveness to noxious stimuli indicates the presence of secondary hyperalgesia. […]

rat arthritis model [3] = assay: Knee joint circumference and joint temperature in kaolin/carrageenan knee joint inflammation model; format: in vivo; conditions: 4 hours after kaolin/carrageenan; spinal pre-treatment
Experimental: as §1
Knee joint circumference is measured in centimeters (cm) with a flexible tape measure around the center of the knee joint while the joint is held in extension as done with patients in the clinical setting as an indication of increases in joint volume. The knee joints of anesthetized rats are measured before (baseline) and four hours following injection of the knee joint with kaolin and carrageenan.
Temperature readings were documented numerically with a temperature probe after the rat is reanesthetized with sodium pentobarbital (50 mg/kg, i.p.) just prior to perfusion with aldehydes for histological preservation. Comparative temperature differences were made between the baseline temperature and the temperature four hours after induction of inflammation.

NMDA currents = conditions: patch clamp studies; cited from earlier work

## C[C@@H]1C[C@@H]([C@H](O)CC2CC(=O)NC(=O)C2)C(=O)[C@@H](C)C1 [Cycloheximide]
[1]
  staining for NR1 in spinal cord: did not totally reduce the staining to baseline
[1]; listed as cycloheximide
  staining for NR1 in spinal cord: reduced the increase in NR1 staining by about half

## COC(=O)[C@@]1(O)C[C@H]2O[C@]1(C)n1c3ccccc3c3c4c(c5c6ccccc6n2c5c31)C(=O)NC4 [K252a]
TNFα
  NMDA/ACPD-promoted release of TNFα: completely abolished

## O=C(O)c1cc(N(Cc2ccccc2O)Cc2cc(O)ccc2O)ccc1O [Lavendustin A]
Rat arthritis model [2]; concentration inside the microdialysis fiber, spinal administration
  most effective dose in pre-treatment animals: 0.5 mM
Rat arthritis model [2]; spinal microdialysis pre-treatment 1.5 hours, PWL to radiant heat 4 hours after kaolin/carrageenan
  PWL decrease induced by knee joint inflammation: significantly (p<0.05 versus 4 hours vehicle group) attenuated the PWL decreases
Rat arthritis model [2]
  development of secondary hyperalgesia: significantly abrogated the development of secondary hyperalgesia
Rat arthritis model [3]
  joint circumference: expected increases
  joint temperature: expected increases
NMDA currents
  effect on NMDA currents: reversibly depresses NMDA currents

## O=C(O)c1cc(N(Cc2ccccc2O)Cc2ccccc2O)ccc1O [Lavendustin B]
Rat arthritis model [2]
  development of secondary hyperalgesia: ineffective in altering the nociceptive outcome of knee joint inflammation

Reference: patent US7022484B2, “Methods for treating neuropathological states and neurogenic inflammatory states and methods for identifying compounds useful therein” (Board of Regents, The University of Texas System, priority 2000, dated 2006)
